Reference: ChEMBL document CHEMBL1201862, “PubChem BioAssay data set” (2004)
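The compound was tested at five concentrations on cells cultured in 96-well plates, with a 48-hour exposure period. GI50 = concentration required for 50% inhibition of growth.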 Calls of active or inactive are those of the source. No stated cut-off is given here; in the data, active = GI50 up to about 1.1 µM and inactive = higher.

Legend:
Assay in all cases: NCI anticancer screen, dose series, 48 h
KM-20L2 = test system: KM-20L2
RXF 631 = test system: RXF 631
SNB-78 = test system: SNB-78
DLD-1 = test system: DLD-1
M19-MEL = test system: M19-MEL
DMS-273 = test system: DMS-273
DMS-114 = test system: DMS-114
XF498 = test system: XF498
HOP-18 = test system: HOP-18

SMILES	GI50 (KM-20L2)	GI50 (RXF 631)	GI50 (SNB-78)	GI50 (DLD-1)	GI50 (M19-MEL)	GI50 (DMS-273)	GI50 (DMS-114)	GI50 (XF498)	GI50 (HOP-18)
CC1(C)Oc2ccccc2[N+]([O-])=C1c1ccccc1	> 100 µM (inactive)	> 100 µM (inactive)	> 100 µM (inactive)	> 100 µM (inactive)	> 100 µM (inactive)	> 100 µM (inactive)	> 100 µM (inactive)	–	–
NNC(=S)N/N=C(/C(=O)Nc1ccc([N+](=O)[O-])cc1)c1nc2ccc([N+](=O)[O-])cc2nc1O	–	–	> 100 µM (inactive)	> 100 µM (inactive)	> 100 µM (inactive)	–	77.6 µM (inactive)	> 100 µM (inactive)	> 100 µM (inactive)
CC1=C(C(=O)Nc2ccc([N+](=O)[O-])cc2)C(c2ccccc2F)C(C(=O)Nc2ccc([N+](=O)[O-])cc2)=C(C)N1	12.3 µM (inactive)	21.3 µM (inactive)	–	8.45 µM (inactive)	14.2 µM (inactive)	–	5.07 µM (inactive)	1.48 µM (inactive)	–
Nc1nc(SCCC/C=C/I)nc2c1ncn2C1OC(CO)C(O)C1O (configuration not stated)	> 202 µM (inactive)	–	> 202 µM (inactive)	> 202 µM (inactive)	> 202 µM (inactive)	> 202 µM (inactive)	> 202 µM (inactive)	> 202 µM (inactive)	> 202 µM (inactive)
C#Cc1c(C)c(/C=C/C(C)=C\C(=O)OC)n(C)c1C	46.6 µM (inactive)	–	> 100 µM (inactive)	45.4 µM (inactive)	> 100 µM (inactive)	> 100 µM (inactive)	19 µM (inactive)	> 100 µM (inactive)	> 100 µM (inactive)
O=C(c1ccccc1)n1cc(/C=C/[N+](=O)[O-])c2ccccc21	–	17.3 µM (inactive)	30.9 µM (inactive)	18.4 µM (inactive)	20.8 µM (inactive)	25.1 µM (inactive)	21.8 µM (inactive)	29.8 µM (inactive)	> 100 µM (inactive)
O=C1OC(=O)c2c1c(-c1ccccc1)nc1ccccc21	> 100 µM (inactive)	> 100 µM (inactive)	> 100 µM (inactive)	> 100 µM (inactive)	> 100 µM (inactive)	> 100 µM (inactive)	> 100 µM (inactive)	> 100 µM (inactive)	–
CC(=O)C1C(=O)C(=O)N(c2ccccc2C(C)C)C1=O (configuration not stated)	> 100 µM (inactive)	–	> 100 µM (inactive)	–	> 100 µM (inactive)	–	–	> 100 µM (inactive)	> 100 µM (inactive)
C=C(CCCCC)CN1CCCC1C(C)=O (configuration not stated)	29.4 µM (inactive)	–	26.1 µM (inactive)	24.7 µM (inactive)	28.9 µM (inactive)	21.5 µM (inactive)	15 µM (inactive)	15 µM (inactive)	28.9 µM (inactive)
CC(C1=CC=C2[C@@H]3CCC4CC(N(C)C)CC[C@]4(C)C3CC[C@]12C)N(C)C=O (some centres not stated)	–	–	–	> 100 µM (inactive)	> 100 µM (inactive)	> 100 µM (inactive)	91.6 µM (inactive)	–	> 100 µM (inactive)
COc1ccc2[nH]c3ccc4cc[n+](CCN5CCC(C6CCN(CC[n+]7ccc8ccc9[nH]c%10ccc(OC)cc%10c9c8c7)CC6)CC5)cc4c3c2c1	1.36 µM (inactive)	–	9.12 µM (inactive)	0.824 µM (active)	0.719 µM (active)	0.23 µM (active)	0.125 µM (active)	> 60.1 µM (inactive)	1.79 µM (inactive)
COc1ccc(O)cc1 [MEQUINOL]	28.6 µM (inactive)	–	> 100 µM (inactive)	> 100 µM (inactive)	95.3 µM (inactive)	–	48.4 µM (inactive)	> 100 µM (inactive)	–
CC1OC(CC(=O)O)CC2=C1C(=O)c1c(O)cccc1C2=O (configuration not stated) [NANAOMYCIN]	0.225 µM (active)	0.6 µM (active)	0.13 µM (active)	0.0192 µM (active)	0.0845 µM (active)	0.212 µM (active)	0.129 µM (active)	0.166 µM (active)	2.41 µM (inactive)
